In US10206398B2, “Five-membered C-N-attached aryl sulphide and aryl sulphoxide derivatives as pesticides” (BAYER CROPSCIENCE AKTIENGESELLSCHAFT, priority 2014, dated 2019):
Where two headings read alike, the source gives them in different places.

Columns and labels:
[1] = log P determination by HPLC on reversed-phase columns (C 18), analogous to OECD Guideline 117; format: physicochemical; conditions: for logP[a]: method [a]; for logP[b]: method [b]; for chromatographic logP: reversed-phase HPLC column (C 18)
Protocol: The log P values were determined analogously to OECD Guideline 117 (EC Directive 92/69/EEC) by HPLC (high-performance liquid chromatography) using reversed-phase columns (C 18), by the following methods: [a] The LC-MS determination in the acidic range was effected at pH 2.7 with 0.1% aqueous formic acid and acetonitrile (contains 0.1% formic acid) as eluents; linear gradient from 10% acetonitrile to 95% acetonitrile. log P[a] is also referred to as log P(HCOOH). [b] LC-MS determination in the neutral range was effected at pH 7.8 with 0.001 molar aqueous ammonium hydrogencarbonate solution and acetonitrile as eluents; linear gradient from 10% acetonitrile to 95% acetonitrile. log P[b] is also referred to as log P(neutral). Calibration is effected with solutions of a homologous series of unbranched alkan-2-ones (having 3 to 16 carbon atoms) with known log P values (log P values determined on the basis of the retention times by linear interpolation between two successive alkanones).

Tetranychus urticae = Tetranychus urticae - spray test, OP-resistant (bean leaf discs, 6 days); format: in vivo; conditions: after 6 days
Protocol: 5. Tetranychus urticae—Spray Test, OP-Resistant
Solvent: 78.0 parts by weight of acetone
• 1.5 parts by weight of dimethylformamide Emulsifier: alkylaryl polyglycol ether
To produce a suitable preparation of active compound, 1 part by weight of active compound is dissolved using the stated parts by weight of solvent and made up with water containing an emulsifier concentration of 1000 ppm until the desired concentration is attained. To produce further test concentrations, the preparation is diluted with emulsifier-containing water.
Discs of bean leaves (Phaseolus vulgaris) infested with all stages of the greenhouse red spider mite (Tetranychus urticae) are sprayed with an active compound preparation of the desired concentration.
After 6 days, the efficacy in % is determined. 100% means that all the spider mites have been killed; 0% means that no spider mites have been killed.

[2] = pH 2.7, HPLC, acidic range, pH 2.7, 0.1% aqueous formic acid and acetonitrile, read-out: log P(HCOOH)
[3] = pH 7.8, HPLC, neutral range, pH 7.8, 0.001 molar aqueous ammonium hydrogencarbonate and acetonitrile, read-out: log P(neutral)
[4] = pH 2.7, Table 3, HPLC, acidic range, pH 2.7, read-out: logP[a]
[5] = pH 7.8, Table 3, HPLC, neutral range, pH 7.8, read-out: logP[b]

| logP[a] [1] | logP[b] [1] | Structure (SMILES) | efficacy (spider mites killed) (Tetranychus urticae; 500 g/ha) [%] | also measured |
| --- | --- | --- | --- | --- |
| 3.12 | 3.05 | Cc1cc(F)c(N2C(=O)C(C)N(C(=O)NCc3ccccc3)C2=O)cc1[S+]([O-])CC(F)(F)F (mixture of isomers) [compound 90] | 100 |  |
| 2.95 | 2.88 | Cc1cc(Cl)c(N2C(=O)CN(C(=O)NCC(C)C)C2=O)cc1[S+]([O-])CC(F)(F)F (racemic) [compound 65] |  | efficacy (spider mites killed) (Tetranychus urticae; 100 g/ha): 90% |
| 2.99 | 2.98 | Cc1cc(F)c(N2C(=O)CN(C(=O)NCC3CCCO3)C2=O)cc1SCC(F)(F)F (racemic) [compound 67] | 100 |  |
| 3.37 | 3.33 | Cc1cc(C)c([S+]([O-])CC(F)(F)F)cc1N1C(=O)CN(C(=O)Nc2cccc(Cl)c2)C1=O (racemic) [compound 69] |  | efficacy (spider mites killed) (Tetranychus urticae; 100 g/ha): 90% |
| 2.95 | 2.91 | Cc1cc(Cl)c(N2C(=O)CN(C(=O)NCc3ccccc3)C2=O)cc1[S+]([O-])CC(F)(F)F (racemic) [compound 70] | 100 |  |
| 3.99 | 3.98 | Cc1cc(F)c(N2C(=O)C(C)N(C(=O)NCC(C)C)C2=O)cc1SCC(F)(F)F (racemic) [compound 80] | 100 |  |
| 3.94 | 3.91 | Cc1cc(F)c(N2C(=O)C(C)N(C(=O)NCc3ccccc3)C2=O)cc1SCC(F)(F)F (racemic) [compound 81] | 100 |  |
| 1.97 | 1.94 | COCCNC(=O)N1CC(=O)N(c2cc([S+]([O-])CC(F)(F)F)c(C)cc2F)C1=O (racemic) [compound 82] | 100 |  |
| 2.73 | 2.70 | CCNC(=O)N1C(=O)N(c2cc([S+]([O-])CC(F)(F)F)c(C)cc2F)C(=O)C1(C)C (racemic) [compound 83] | 90 |  |
| 3.07 | 3.05 | Cc1cc(F)c(N2C(=O)N(C(=O)NCC(F)(F)F)C(C)(C)C2=O)cc1[S+]([O-])CC(F)(F)F (racemic) [compound 85] | 100 |  |
| 3.41 | 3.39 | Cc1cc(F)c(N2C(=O)N(C(=O)NCC(C)C)C(C)(C)C2=O)cc1[S+]([O-])CC(F)(F)F (racemic) [compound 86] | 100 |  |
| 3.48 | 3.38 | Cc1cc(F)c(N2C(=O)N(C(=O)NCc3ccccc3)C(C)(C)C2=O)cc1[S+]([O-])CC(F)(F)F (racemic) [compound 87] | 100 |  |
| 3.57 | 3.47 | Cc1cc(C)c([S+]([O-])CC(F)(F)F)cc1N1C(=O)CN(C(=O)Nc2cccc(CC(F)(F)F)c2)C1=O (racemic) [compound 97] | 90 |  |
| 2.85 | 2.77 | Cc1cc(C)c([S+]([O-])CC(F)(F)F)cc1N1C(=O)CN(C(=O)NCc2ccccc2)C1=O (racemic) [compound 98] | 90 |  |
| 3.17 | 3.09 | Cc1cc(Cl)c(N2C(=O)CN(C(=O)Nc3ccc(F)cc3)C2=O)cc1[S+]([O-])CC(F)(F)F (racemic) [compound 100] | 100 |  |
| 2.56 | 2.59 | CCNC(=O)N1CC(=O)N(c2cc([S+]([O-])CC(F)(F)F)c(Cl)cc2Cl)C1=O (racemic) [compound 111] | 100 |  |
| 2.61 | 2.65 | O=C(NC1CC1)N1CC(=O)N(c2cc([S+]([O-])CC(F)(F)F)c(Cl)cc2Cl)C1=O (racemic) [compound 112] | 100 |  |
| 3.21 | 3.28 | CC(C)CNC(=O)N1CC(=O)N(c2cc([S+]([O-])CC(F)(F)F)c(Cl)cc2Cl)C1=O (racemic) [compound 113] | 100 |  |
| 2.88 | 2.91 | O=C(NCC(F)(F)F)N1CC(=O)N(c2cc([S+]([O-])CC(F)(F)F)c(Cl)cc2Cl)C1=O (racemic) [compound 114] | 100 |  |
| 3.23 | 3.29 | O=C(NCc1ccccc1)N1CC(=O)N(c2cc([S+]([O-])CC(F)(F)F)c(Cl)cc2Cl)C1=O (racemic) [compound 115] | 100 |  |

| logP[a] [1] | logP[b] [1] | Structure (SMILES) | efficacy (spider mites killed) (Tetranychus urticae; 500 g/ha) [%] | also measured |
| --- | --- | --- | --- | --- |
| 3.39 | 3.46 | O=C(Nc1ccc(F)cc1)N1CC(=O)N(c2cc([S+]([O-])CC(F)(F)F)c(Cl)cc2Cl)C1=O (racemic) [compound 116] | 100 |  |
| 2.65 | 2.65 | Cc1cc(Cl)c(N2C(=O)CN(C(=O)Nc3ccccn3)C2=O)cc1[S+]([O-])CC(F)(F)F (racemic) [compound 119] |  |  |
| 2.4 | 2.44 | Cc1cc(F)c(N2C(=O)CN(C(=O)NCC(F)(F)F)C2=O)cc1[S+]([O-])CC(F)(F)F (single isomer, unassigned) [Ex. No. 135] |  |  |
|  |  | Cc1cc(F)c(N2C(=O)CN(C(=O)NC3CC3)C2=S)cc1SCC(F)(F)F [Ex. No. 2, N-Cyclopropyl-3-[2-fluoro-4-methyl-5-(2,2,2-trifluoroethylsulphanyl)phenyl]-4-oxo-2-thioxoimidazolidine-1-carboxamide] |  | chromatographic logP [1, 2]: 3.66; chromatographic logP ([1]; pH 2.7, method [a], read-out: logP[a]): 3.66; chromatographic logP [1, 3]: 3.56; chromatographic logP ([1]; pH 7.8, method [b], read-out: logP[b]): 3.56 |
| 3.91 | 3.86 | CCNC(=O)N1CC(=O)N(c2cc(SCC(F)(F)F)c(C)cc2F)C1=S [Ex. No. 8] |  |  |
|  |  | Cc1cc(F)c(N2C(=O)NC(C)C2=O)cc1SCC(F)(F)F (stereo not drawn) [IIa-3, 3-[2-Fluoro-4-methyl-5-(2,2,2-trifluoroethylsulphanyl)phenyl]-5-methylimidazolidine-2,4-dione] |  | chromatographic logP [1, 2]: 2.34; chromatographic logP [1, 4]: 2.34; chromatographic logP [1, 3]: 2.31; chromatographic logP [1, 5]: 2.31 |
|  |  | Cc1cc(F)c(N2C(=O)NC(C)(C)C2=O)cc1SCC(F)(F)F [IIa-5, 3-[2-Fluoro-4-methyl-5-(2,2,2-trifluoroethylsulphanyl)phenyl]-5,5-dimethylimidazolidine-2,4-dione] |  | chromatographic logP [1, 2]: 2.61; chromatographic logP [1, 4]: 2.61; chromatographic logP [1, 3]: 2.53; chromatographic logP [1, 5]: 2.53 |
| 3.98 | 3.87 | Cc1cc(F)c(N2C(=O)CN(C(=O)NC(C)C)C2=S)cc1SCC(F)(F)F [compound 5] |  |  |
| 4.27 | 4.18 | Cc1cc(F)c(N2C(=O)CN(C(=O)NCC(C)C)C2=S)cc1SCC(F)(F)F [compound 11] |  |  |
| 2.37 | 2.75 | Cc1cc(F)c(N2C(=O)CN(C(=O)Nc3cccnc3)C2=O)cc1SCC(F)(F)F [compound 17] |  |  |
| 2.77 | 2.76 | Cc1cc(C)c([S+]([O-])CC(F)(F)F)cc1N1C(=O)CN(C(=O)NCC(C)C)C1=O (stereo not drawn) [compound 35] |  |  |
| 4.32 | 4.19 | Cc1cc(C)c(N2C(=O)CN(C(=O)Nc3cccc(Cl)c3)C2=O)cc1SCC(F)(F)F [compound 56] |  |  |
| 3.72 | 3.70 | CCNC(=O)N1C(=O)N(c2cc(SCC(F)(F)F)c(C)cc2F)C(=O)C1(C)C [compound 73] |  |  |
| 4.02 | 3.95 | Cc1cc(F)c(N2C(=O)N(C(=O)NCC(F)(F)F)C(C)(C)C2=O)cc1SCC(F)(F)F [compound 75] |  |  |
| 3.95 | 3.86 | Cc1cc(C)c(N2C(=O)CN(C(=O)Nc3ccc(F)cc3)C2=O)cc1SCC(F)(F)F [compound 93] |  |  |
| 3.47 | 3.42 | Cc1cc(C)c(N2C(=O)CN(C(=O)Nc3ccccn3)C2=O)cc1SCC(F)(F)F [compound 95] |  |  |
| 3.55 | 3.51 | Cc1cc(Cl)c(N2C(=O)CN(C(=O)Nc3ccccn3)C2=O)cc1SCC(F)(F)F [compound 96] |  |  |
| 3.86 | 3.90 | O=C(NCc1ccccc1)N1CC(=O)N(c2cc(SCC(F)(F)F)c(Cl)cc2Cl)C1=O [compound 107] |  |  |
| 3.53 | 3.59 | Cc1cc(F)c(N2C(=O)CN(C(=O)N(C)CC(C)C)C2=O)cc1SCC(F)(F)F [compound 124] |  |  |
